Measurements from PubChem BioAssay (NCI).
Several values for one entry are separate records, joined by “and”; a condition that tells them apart may be missing. Identical values can stand only once.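 Growth conditions: 96-well plates. Treatment: test compound, 48 hours, 5 concentrations. Analysis: linear interpolation between bracketing concentrations; unreached endpoints set to highest concentration. GI50 marks 50% less growth. TGI: concentration producing complete growth inhibition.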

Columns and labels:
Assay in all cases: growth of human tumour cells (NCI), 48 h
[1] = test system: CCRF-CEM leukemia
[2] = test system: COLO 205 colon
[3] = test system: HCC-2998 colon
[4] = test system: HCT-15 colon
[5] = test system: HL-60(TB) leukemia
[6] = test system: HT29 colon
[7] = test system: MOLT-4 leukemia
[8] = test system: NCI-H522 lung
[9] = test system: SN12C renal
[10] = test system: UO-31 renal

Row | Structure (SMILES) | TGI [1] [nM] | TGI [2] | TGI [3] [nM] | TGI [4] | TGI [5] [nM] | TGI [6] | TGI [7] [nM] | TGI [8] | TGI [9] | TGI [10] | GI50 [1] [nM] | GI50 [2] | GI50 [3] [nM] | GI50 [4] | GI50 [5] [nM] | GI50 [6] | GI50 [7] [nM] | GI50 [8] | GI50 [9] [nM] | GI50 [10]
1 | C=CCCCCn1c2ccccc2c2c(C)c3cnccc3c(C)c21 | 14300 | 18000 nM | 51200 | 27500 nM | 4920 | 25700 nM | 9470 | 18000 nM | 29700 nM | 23800 nM |  |  |  |  |  |  |  |  |  | 
2 | CCC1(OC(=O)CN)C(=O)OCc2c1cc1n(c2=O)Cc2cc3cc4c(cc3nc2-1)OCO4 (stereo not given) |  | 2560 nM and 1780 nM | 1080 | 26800 nM and 10200 nM |  | 739 nM and 281 nM | 11.3 | 1430 nM and 243 nM | 21800 nM and > 100000 nM | 151 nM and 400 nM | < 10 | 362 nM and 150 nM | 101 | 126 nM and 48.3 nM | < 10 | 24.5 nM and 17.1 nM | < 10 | 53.1 nM and < 10 nM | < 10 | < 10 nM and 61.4 nM
3 | COC(=O)[C@@H]1C=C[C@H](NC(C)=O)C1 | > 100000 | > 100000 nM | > 100000 | > 100000 nM |  | > 100000 nM | > 100000 |  | > 100000 nM | > 100000 nM |  |  |  |  |  |  |  |  |  | 
4 | Cn1c(=O)n(CC2CS2)c2ccccc21 (stereo not given) | > 100000 | > 100000 nM | > 100000 | > 100000 nM | > 100000 | > 100000 nM | > 100000 | > 100000 nM | > 100000 nM | > 100000 nM |  |  |  |  |  |  |  |  |  | 
5 | CC1(C)[C@@H](OC(N)=O)C=C[C@]2(CO)[C@H]3CC[C@]4(C)[C@@H](c5ccc(=O)oc5)[C@@H](Cl)C[C@]4(O)C3=CC[C@@H]12 | 13.1 | 24.4 nM | 77.6 | 25.8 nM |  | 15.4 nM |  | 3.05 nM | 15.7 nM | 13.4 nM | < 0.1 | 5.78 nM | 11.3 | 4.81 nM |  | 2.4 nM | < 0.1 | < 0.1 nM | < 0.1 | 3.51 nM
6 | CCN(CCCl)c1cccc(NC(=O)c2ccc(C(=O)Nc3cccc(CN(C)C)c3)cc2)c1 | 1220 | 240 nM | 368 | 6580 nM | 12700 |  | 1150 | 34.2 nM | 2440 nM | 1810 nM |  |  |  |  |  |  |  |  |  | 
7 | C=C(C)[C@@H]1CC[C@]2(CO)CC[C@]3(C)[C@H](CC[C@@H]4[C@@](C)(CCCN)[C@H](C(=C)C)CC[C@]43C)[C@@H]12 | 4760 | 3340 nM | 3300 |  | 3610 | 3770 nM |  |  | 2750 nM | 2580 nM | 1840 | 1630 nM | 1790 |  | 1780 | 1580 nM |  |  | 1390 | 1310 nM
8 | CCN(CC)/[N+]([O-])=N/O | > 100000 |  | > 100000 | > 100000 nM | > 100000 | > 100000 nM | > 100000 | > 100000 nM | > 100000 nM | > 100000 nM |  |  |  |  |  |  |  |  |  | 
